Reference: paper PMC7669869, “AdipoR1/AdipoR2 dual agonist recovers nonalcoholic steatohepatitis and related fibrosis via endoplasmic reticulum-mitochondria axis” (Nature Communications, 2020)
Where “and” joins values, the source holds several entries; their conditions need not be identical. Equal values may be shown once. Non-standard residues stand in square brackets, D forms with d. Residues, ends and D or L forms follow the SMILES beside them. Nva = CCC[C@H](N)C(=O)O

How the values were obtained:
AdipoR2 = biological target: T1, AdipoR2 (Homo sapiens, UniProt Q86V24); assay: Competition binding assay vs globular adiponectin (western blot), AdipoR2 overexpression cells; conditions: JT003 4 h, then 50 μg ml−1 gAd155–161 4 h, in words
T1 construct: His; host or cells: HEK293
T1 sequence (Q86V24 1-386): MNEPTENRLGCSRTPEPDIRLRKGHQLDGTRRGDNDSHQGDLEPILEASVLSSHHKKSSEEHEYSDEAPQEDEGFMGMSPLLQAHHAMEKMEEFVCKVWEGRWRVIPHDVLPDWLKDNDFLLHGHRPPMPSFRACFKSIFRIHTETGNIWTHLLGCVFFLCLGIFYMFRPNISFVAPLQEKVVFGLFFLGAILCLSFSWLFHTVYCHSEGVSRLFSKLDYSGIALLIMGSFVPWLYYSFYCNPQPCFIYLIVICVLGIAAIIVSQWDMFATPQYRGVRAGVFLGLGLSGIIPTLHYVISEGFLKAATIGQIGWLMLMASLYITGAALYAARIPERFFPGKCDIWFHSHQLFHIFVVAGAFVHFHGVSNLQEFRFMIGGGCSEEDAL
Procedure: Different concentration of JT003 were incubated with AdipoR1 or AdipoR2 overexpression HEK293 cell line for 4 h. After that, 50 μg ml^−1 gAd155–161 were added for another 4 h incubation. The binding of gAd155–161 to the cells were measured via western blot assay.

HFD induced NASH mice = assay: HFD mice: fasting blood glucose, fasting insulin and adiponectin (ELISA); assay type: in vivo, mouse; conditions: JT003 500 μg kg−1 i.p. daily 4 weeks, in words
Procedure: (§1) The NASH model was conducted with feeding a HFD for 16 weeks combine with a MCD diet (Methionine/Choline Deficient Diet, Medicience, China) in the last 4 weeks. Mice administered a MCS diet (Methionine/Choline Sufficient Diet, Medicience, China) serves as control group. NAFLD or NASH mice treated with JT003 for 4 weeks were used to evaluate the pharmacological effects (n = 6; 500 μg kg^−1; daily intraperitoneal injection). Food and water were provided ad libitum. The body weight of mice was examined every 3 days. The diet was renewed every 7 days. JT003 was diluted in PBS.
Fasting blood glucose was measured using OneTouch UltraVue Blood Glucose Meter and test strips (Johnson&Johnson, USA) from tail nicks. After HFD fed for 14 weeks and JT003 treated for 2 weeks, oral glucose tolerance tests were performed on 8 h fasted mice. 0.5 g ml^−1 D-glucose solution (Sigma-Aldrich, USA) were oral injected to mice (2 g kg^−1 of bodyweight), blood glucose level was recorded at baseline, 15, 30, 60, 120 min
The levels of ALT, AST, TC and TG in serum were determined using certain commercial assay kits (Nanjing Jiancheng Bioengineering Institute, China). Fasting adiponectin and insulin were quantified in plasma samples using corresponding commercially available Elisa kits (Cloud-Clone Crop, USA).

HFD + MCD diet NASH mice = assay: HFD combined with MCD diet NASH mice: weight gain, HE steatosis area; assay type: in vivo, mouse; conditions: HFD 16 weeks + MCD diet last 4 weeks; compared with ADP355; in words
Procedure: as §1
The levels of TG and HYP in liver tissue were detected with certain commercial assay kit (Nanjing Jiancheng Bioengineering Institute, China). Formalin-fixed liver tissues were embedded in paraffin, sectioned into 5 μm slices. After deparaffinization and rehydration of the section slices, they were stained with Haematoxylin and Eosin or Periodic Acid-Schiff. For the detection of liver collagen content, Sirius Red staining for collagen was performed. […] The cryostat-cut slices were stained with freshly prepared Oil Red O working solution for 7 min Two independent experimenters who were blinded to the treatment evaluated the staining slides and analyzed the score for steatosis, glucogen accumulation and collagen proliferation area.

[1] = tested on: gene expression in PA induced HepG2 cells; assay: Quantitative RT-PCR in PA induced HepG2 cells; assay type: cell-based, human; conditions: for IL-1a mRNA, relative expression, Supplementary Figure 11a / IL-6 mRNA, relative expression, Supplementary Figure 11a / IL-8 mRNA, relative expression, Supplementary Figure 11a / TNFa mRNA, relative expression, Supplementary Figure 11a: PA induced HepG2 cells, PA+JT003
Procedure: Hepatoma carcinoma cell line HepG2 and human hepatic activated stellate cell line LX2 used in this study were purchased from Type Culture Collection of the Chinese Academy of Sciences (Shanghai, China). Cells were cultured in Dulbecco’s modified Eagle’s medium (DMEM) with 10% fetal bovine serum (FBS), supplemented with 1% penicillin–streptomycin (ThermoFisher Scientific, USA) at 37 °C in a humidified atmosphere of 5% CO2. In PA (Sigma, USA) induced lipid accumulation cell model, HepG2 cells were seeded into a 6-well plate at 5E5 cells per well. 0.25 mM PA and/or 200 μM candidate peptides were co-incubated with cells for 24 h. Then Oil Red O staining was performed to evaluate the accumulation of lipid droplets. BSA (Sigma, USA) was used in this experiment as the negative control. For LX2 cells, 2E5 cells were seeded, then the adherent cells were exposed to 200 μM candidate peptides for another 48 h. Next, the cell protein was obtained and western blotting was performed. Candidate peptides were diluted in DMEM in a stock concentration of 1 M.
Liver total RNA was extracted by using Trizol reagent following the manufacture’s instruction (TransGen Biotech, China). The concentration of RNA was measured by Nanodrop 2000 (ThermoFisher Scientific, USA). cDNA was transcribed from 10ug total RNA with First Strand cDNA synthesis Super Mix (TransGen Biotech, China). The cDNA was diluted 1/50 and 1.0 uL were used as a template for qPCR. qPCR was performed with SYBR Green qPCR Super Mix (TransGen Biotech, China) in the Light Cycler 480 Real-Time PCR System (Roche, Swiss). Reference gene β-actin was used for data normalization. mRNA expression was analyzed with specific primers listed in Supplementary Table 2.

[2] = tested on: CCl4 induced liver fibrosis mice; assay: CCl4 mice: serum ALT, AST and liver HYP; assay type: in vivo, mouse; conditions: Figure 5b; CCl4 + JT003 group; single animals, n = 5

SMILES: CCC[C@H](NC(=O)[C@@H]1CCCN1)C(=O)N[C@@H](CC(C)C)C(=O)N[C@@H](Cc1ccc(O)cc1)C(=O)N[C@@H](Cc1ccc(O)cc1)C(=O)N[C@@H](Cc1ccccc1)C(=O)N[C@@H](C)C(N)=O [JT003] (H-P[Nva]LYYFA-NH2)
- competitive binding to globular adiponectin, AdipoR2 overexpression cells (AdipoR2): more JT003 cause less globular adiponectin binding
- HFD-induced increasing of fasting blood glucose and fasting serum insulin levels (HFD induced NASH mice): decreased
- decrease in circulating adiponectin in the HFD group (HFD induced NASH mice): reverted remarkably
- lipid accumulation in HFD combine with MCD diet NASH mouse model (HFD + MCD diet NASH mice): inhibited lipid accumulation significantly with a 20 times lower dosage
- lipogenesis (FAS, SREBP-1C, SREBP-2 and ACC1) and fatty acid β-oxidation (ACOX, LCAD and PDK4) genes ([1]; HepG2, 0.25 mM PA + 200 μM JT003, in words): meliorated notably
- inflammatory factors and ER-mitochondrial axis dysfunction (mRNA) ([1]; PA induced HepG2, 200 μM JT003, in words): meliorated notably
- IL-1a mRNA, relative expression, Supplementary Figure 11a ([1]; replicate 1): 1.056
- IL-6 mRNA, relative expression, Supplementary Figure 11a ([1]; replicate 1): 0.3197
- IL-8 mRNA, relative expression, Supplementary Figure 11a ([1]; replicate 1): 0.8479
- TNFa mRNA, relative expression, Supplementary Figure 11a ([1]; replicate 1): 0.6008
- IL-1a mRNA, relative expression, Supplementary Figure 11a ([1]; replicate 2): 0.8256
- IL-6 mRNA, relative expression, Supplementary Figure 11a ([1]; replicate 2): 0.3197
- IL-8 mRNA, relative expression, Supplementary Figure 11a ([1]; replicate 2): 0.8134
- TNFa mRNA, relative expression, Supplementary Figure 11a ([1]; replicate 2): 0.8039
- IL-1a mRNA, relative expression, Supplementary Figure 11a ([1]; replicate 3): 0.9853
- IL-6 mRNA, relative expression, Supplementary Figure 11a ([1]; replicate 3): 0.4368
- IL-8 mRNA, relative expression, Supplementary Figure 11a ([1]; replicate 3): 0.8277
- TNFa mRNA, relative expression, Supplementary Figure 11a ([1]; replicate 3): 0.7928
- IL-1a mRNA, relative expression, Supplementary Figure 11a ([1]; replicate 4): 0.9145
- IL-6 mRNA, relative expression, Supplementary Figure 11a ([1]; replicate 4): 0.3522
- IL-8 mRNA, relative expression, Supplementary Figure 11a ([1]; replicate 4): 0.8368
- TNFa mRNA, relative expression, Supplementary Figure 11a ([1]; replicate 4): 0.7583
- alt Enzymatic Activity [2]: 182.294 U/L and 119.931 U/L and 31.0646 U/L and 95.3544 U/L and 50.0405 U/L
